Data on eleven compounds can be found in US10829481B2, “Benzimidazole derivatives as modulators of ROR-gamma” (Vitae Pharmaceuticals, LLC, priority 2016, dated 2020).

In assay [1] the target is recombinant RORγ Ligand Binding Domain (LBD) protein (Homo sapiens (Human), UniProt P51449). Put plainly: Radio-Ligand RORγ Binding Assay (Assay 1). As to conditions: competition with 25-hydroxy [26,27-3H]-cholesterol, SPA. A digest of the protocol:
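Scintillation proximity competition against 25-hydroxy [26,27-^3H]-cholesterol (8.6 nM solution) for 6×His-GST-tagged RORγ LBD (24 nM solution) in HEPES pH 7.4 with CHAPS, β-octylglucopyranoside and DTT; semi-log compound dilutions, ~1 h total at rt with poly-Lys YSi beads. IC50 from four-parameter fit; Ki derived from [RL] and radioligand KD.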

The target of assay [2] is full-length RORγt in Jurkat cells (Homo sapiens (Human), UniProt P51449). Put plainly: RORγt 5×RORE Assay in Jurkat Cells (Assay 2). The assay is classed as cell-based. As to conditions: 5×RORE Nanoluc luciferase reporter. On the technique in general: In a reporter assay the amount or activity of a reporter protein is the signal.
Chain of full-length RORγt in Jurkat cells (P51449 other isoform, or with tags, fused parts or gaps): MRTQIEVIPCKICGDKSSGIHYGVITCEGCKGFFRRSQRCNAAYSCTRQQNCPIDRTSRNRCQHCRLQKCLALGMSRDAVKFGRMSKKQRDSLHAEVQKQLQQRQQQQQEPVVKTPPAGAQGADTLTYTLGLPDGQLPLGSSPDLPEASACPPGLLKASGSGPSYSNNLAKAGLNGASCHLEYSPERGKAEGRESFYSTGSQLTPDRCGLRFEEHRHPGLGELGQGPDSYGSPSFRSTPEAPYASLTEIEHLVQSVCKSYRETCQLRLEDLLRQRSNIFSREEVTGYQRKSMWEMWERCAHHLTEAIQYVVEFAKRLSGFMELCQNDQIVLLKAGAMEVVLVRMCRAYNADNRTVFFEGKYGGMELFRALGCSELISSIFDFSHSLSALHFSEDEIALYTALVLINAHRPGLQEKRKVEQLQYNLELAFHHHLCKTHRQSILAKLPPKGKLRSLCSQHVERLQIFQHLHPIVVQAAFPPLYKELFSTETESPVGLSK

Chain of recombinant RORγ Ligand Binding Domain (LBD) protein (P51449 269-508): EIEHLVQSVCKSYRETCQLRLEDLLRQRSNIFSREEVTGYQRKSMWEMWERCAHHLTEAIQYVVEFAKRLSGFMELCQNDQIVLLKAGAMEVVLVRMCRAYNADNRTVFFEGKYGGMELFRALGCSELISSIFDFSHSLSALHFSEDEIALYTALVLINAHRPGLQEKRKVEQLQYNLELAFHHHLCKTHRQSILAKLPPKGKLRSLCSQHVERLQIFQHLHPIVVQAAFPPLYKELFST

With `CCS(=O)(=O)c1ccc(CNC(=O)c2ccc3c(c2)nc(C2CC2)n3Cc2cccc(OC(F)(F)F)c2)cc1` [I-109, 2-cyclopropyl-N-(4-(ethylsulfonyl)benzyl)-1-(3-(trifluoromethoxy)benzyl)-1H-benzo[d]imidazole-5-carboxamide], the inhibition constant (Ki) in assay [1] is under 100 nM. Besides, the IC50 in assay [2] was under 100 nM.

Take `CNC(=O)CS(=O)(=O)N1CCC(CNC(=O)c2ccc3c(c2)nc(C(F)(F)F)n3Cc2cccc3c2OC(F)(F)O3)CC1` [I-75, 1-((2,2-difluorobenzo[d][1,3]dioxol-4-yl)methyl)-N-((1-((2-(methylamino)-2-oxoethyl)sulfonyl)piperidin-4-yl)methyl)-2-(trifluoromethyl)-1H-benzo[d]imidazole-5-carboxamide]: in assay [1], the Ki is under 100 nM. In assay [2], this compound showed a concentration for half-maximal inhibition (IC50) of under 100 nM.

With `CCS(=O)(=O)c1ccc(CNC(=O)c2ccc3c(c2)nc([C@@H](C)OC)n3Cc2cccc3c2OC(F)(F)O3)cc1` (mixture of isomers) [I-49.2, (S)-1-((2,2-difluorobenzo[d][1,3]dioxol-4-yl)methyl)-N-(4-(ethylsulfonyl)benzyl)-2-(1-methoxyethyl)-1H-benzo[d]imidazole-5-carboxamide and (R)-1-((2,2-difluorobenzo[d][1,3]dioxol-4-yl)methyl)-N-(4-(ethylsulfonyl)benzyl)-2-(1-methoxyethyl)-1H-benzo[d]imidazole-5-carboxamide], the Ki in assay [1] is under 100 nM. For the same compound, the IC50 in assay [2] is under 100 nM.

Take `CCS(=O)(=O)c1ccc(CNC(=O)c2ccc3c(c2)nc(C(F)(F)F)n3C2(c3cccc(C#N)c3)CC2)cc1` [I-92, 1-(1-(3-cyanophenyl)cyclopropyl)-N-(4-(ethylsulfonyl)benzyl)-2-(trifluoromethyl)-1H-benzo[d]imidazole-5-carboxamide]: the Ki in assay [1] is under 100 nM. This compound also gave an IC50 in assay [2] of 100 to 1000 nM.

For the compound “(R)-1-(1-(3-cyanophenyl)ethyl)-N-(4-(ethylsulfonyl)benzyl)-2-(trifluoromethyl)-1H-benzo[d]imidazole-5-carboxamide [I-93.2]”, in assay [1], the inhibitory constant (Ki) was under 100 nM. The half-maximal inhibitory concentration (IC50) in assay [2] was under 100 nM.

As for `O=C(NCc1ccc(S(=O)(=O)CCO)cc1)c1ccc2c(c1)nc(C1CC1)n2Cc1cccc2c1OC(F)(F)O2` [I-47, 2-cyclopropyl-1-((2,2-difluorobenzo[d][1,3]dioxol-4-yl)methyl)-N-(4-((2-hydroxyethyl)sulfonyl)benzyl)-1H-benzo[d]imidazole-5-carboxamide], the inhibitory constant (Ki) in assay [1] is under 100 nM. In assay [2], this compound returned an IC50 of under 100 nM.

Consider `CCc1nc2cc(C(=O)NCc3ccc(S(=O)(=O)CC)cc3)ccc2n1[C@H](C)c1cccc2c1OC(F)(F)O2` [I-125.2, (R)-1-(1-(2,2-difluorobenzo[d][1,3]dioxol-4-yl)ethyl)-2-ethyl-N-(4-(ethylsulfonyl)benzyl)-1H-benzo[d]imidazole-5-carboxamide], for which the inhibition constant (Ki) in assay [1] was under 100 nM. In assay [2], this compound gave a half-inhibitory concentration (IC50) of under 100 nM.

With `CCS(=O)(=O)c1ccc(CNC(=O)c2ccc3c(c2)nc(C2CC2)n3Cc2cccc3c2OCCO3)cc1` [I-148, 2-cyclopropyl-1-((2,3-dihydrobenzo[b][1,4]dioxin-5-yl)methyl)-N-(4-(ethylsulfonyl)benzyl)-1H-benzo[d]imidazole-5-carboxamide], the inhibitory constant (Ki) in assay [1] was under 100 nM. Further, in assay [2], the IC50 was over 1000 nM.

Regarding `CS(=O)(=O)N1CCC(CNC(=O)c2ccc3c(c2)nc(C2CC2)n3Cc2cccc3c2OC(F)(F)O3)CC1` [I-72, 2-cyclopropyl-1-((2,2-difluorobenzo[d][1,3]dioxol-4-yl)methyl)-N-((1-(methylsulfonyl)piperidin-4-yl)methyl)-1H-benzo[d]imidazole-5-carboxamide], the inhibitory constant (Ki) in assay [1] was under 100 nM. Besides, in assay [2], the concentration for half-maximal inhibition (IC50) is under 100 nM.

As for `CCS(=O)(=O)c1ccc(CNC(=O)c2ccc3c(c2)nc(C(F)(F)F)n3[C@@H](C)c2cccc(C#N)c2)cc1` [I-93.1, (S)-1-(1-(3-cyanophenyl)ethyl)-N-(4-(ethylsulfonyl)benzyl)-2-(trifluoromethyl)-1H-benzo[d]imidazole-5-carboxamide], in assay [1], the inhibitory constant (Ki) is under 100 nM. In assay [2], the IC50 was under 100 nM.

Consider `CS(=O)(=O)c1ccc([C@H](CO)NC(=O)c2ccc3c(c2)nc(C2(F)CC2)n3Cc2cccc3c2OC(F)(F)O3)cc1` [I-24, (R)-1-((2,2-difluorobenzo[d][1,3]dioxol-4-yl)methyl)-2-(1-fluorocyclopropyl)-N-(2-hydroxy-1-(4-(methylsulfonyl)phenyl)ethyl)-1H-benzo[d]imidazole-5-carboxamide], for which the Ki in assay [1] was under 100 nM. Also, in assay [2], the IC50 was under 100 nM.

A word on the Ki: it is the dissociation constant of the complex between target and ligand, obtained from inhibition or displacement. The IC50 is the concentration that gives 50% inhibition. A low value points to inhibition by little substance.
